{"source": "patent US20100029643A1", "about": "(ASTRAZENECA AB, priority 2006, published 2010)", "data": [{"biological_target": "T1, Edg-1/S1P1 receptor (Homo sapiens, UniProt P21453)", "T1 construct": "expressed in transfected cells; host or cells: human osteogenic sarcoma U2OS cells: Edg-1 Transfluor U2OS WT Clone #37 (assay I), Edg-1 Transfluor U2OS Clone #3 (assay II)", "T1 sequence (P21453 whole entry)": "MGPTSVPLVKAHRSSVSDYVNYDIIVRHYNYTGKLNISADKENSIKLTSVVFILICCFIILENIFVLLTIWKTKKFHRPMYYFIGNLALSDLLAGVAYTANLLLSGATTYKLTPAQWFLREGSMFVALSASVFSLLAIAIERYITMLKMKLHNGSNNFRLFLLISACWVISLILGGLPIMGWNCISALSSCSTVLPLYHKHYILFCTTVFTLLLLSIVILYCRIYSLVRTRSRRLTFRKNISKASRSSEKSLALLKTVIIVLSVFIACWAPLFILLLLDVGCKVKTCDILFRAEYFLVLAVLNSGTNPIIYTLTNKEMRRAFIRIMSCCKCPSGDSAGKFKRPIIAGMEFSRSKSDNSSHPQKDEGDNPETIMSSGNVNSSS", "assay": "In vitro cell based receptor activation assay - Transfluor assay (assay I or II; beta-arrestin GFP relocalization after S1P stimulation)", "details": "at 3.50 μM (titrated from top concentration 10 μM)", "method_in_brief": "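U2OS cells overexpressing S1P1 with a beta-arrestin-GFP construct were pre-incubated with compound for 15 min at room temperature, then stimulated with S1P for 45 min at 37 °C. In assay I, final S1P was 375 nM or 750 nM and compound was a 9-point 3-fold series from 100 μM, in 1% DMSO. Cells were fixed and Hoechst-stained, GFP relocalization was imaged, and EC50 values were fitted.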", "units": {"inhibition at 3.5 µM": "%"}, "values": [{"molecule": "CCn1c([C@@H](C)NS(=O)(=O)c2ccc(C#N)cc2)nc2cnc(OC)cc21", "note": "[Example 150, (R)-4-Cyano-N-(1-(1-ethyl-6-methoxy-1H-imidazo[4,5-c]pyridin-2-yl)ethyl)benzenesulfonamide]", "inhibition at 3.5 µM": 91.6}, {"molecule": "CCn1c([C@@H](C)NS(=O)(=O)c2ccc(C#N)nc2)nc2cnc(OC)cc21", "note": "[Example 151, (R)-6-Cyano-N-(1-(1-ethyl-6-methoxy-1H-imidazo[4,5-c]pyridin-2-yl)ethyl)pyridine-3-sulfonamide]", "inhibition at 3.5 µM": 91.7}, {"molecule": "CCn1c([C@@H](C)NS(=O)(=O)c2ccc(C(N)=O)nc2)nc2cnc(OC)cc21", "note": "[Example 152]", "inhibition at 3.5 µM": 91.8}, {"molecule": "CCn1c(C(C)(C)NS(=O)(=O)c2ccc(F)cc2)nc2cnc(C(F)(F)F)cc21", "note": "[Example 153, N-(2-(1-Ethyl-6-(trifluoromethyl)-1H-imidazo[4,5-c]pyridin-2-yl)propan-2-yl)-4-fluorobenzenesulfonamide]", "inhibition at 3.5 µM": 82}, {"molecule": "CCn1c(C(C)(C)NS(=O)(=O)c2ccc(C#N)cc2)nc2cnc(C(F)(F)F)cc21", "note": "[Example 154, 4-Cyano-N-(2-(1-ethyl-6-(trifluoromethyl)-1H-imidazo[4,5-c]pyridin-2-yl)propan-2-yl)benzenesulfonamide]", "inhibition at 3.5 µM": 77.3}, {"molecule": "CCn1c(C(C)(C)NS(=O)(=O)c2ccc(C#N)nc2)nc2cnc(C(F)(F)F)cc21", "note": "[Example 155, 6-Cyano-N-(2-(1-ethyl-6-(trifluoromethyl)-1H-imidazo[4,5-c]pyridin-2-yl)propan-2-yl)pyridine-3-sulfonamide]", "inhibition at 3.5 µM": 78.9}, {"molecule": "CCn1c([C@@H](C)NS(=O)(=O)c2ccc(OC(C)C)cc2)nc2ccc(C(F)(F)F)cc21", "note": "[Example 156]", "inhibition at 3.5 µM": 80.7}, {"molecule": "CCOc1ccc(S(=O)(=O)N[C@H](C)c2nc3ccc(C(F)(F)F)cc3n2CC)cc1", "note": "[Example 157, (R)-4-Ethoxy-N-(1-(1-ethyl-6-(trifluoromethyl)-1H-benzo[d]imidazol-2-yl)ethyl)benzenesulfonamide]", "inhibition at 3.5 µM": 88.4}, {"molecule": "CCn1c([C@@H](C)NS(=O)(=O)c2ccc(C(N)=O)n2C)nc2ccc(C(F)(F)F)cc21", "note": "[Example 158, (R)-5-(N-(1-(1-Ethyl-6-(trifluoromethyl)-1H-benzo[d]imidazol-2-yl)ethyl)sulfamoyl)-1-methyl-1H-pyrrole-2-carboxamide]", "inhibition at 3.5 µM": 93.6}, {"molecule": "CCn1c([C@@H](C)NS(=O)(=O)c2ccc(-c3ccccc3)cc2)nc2ccc(C(F)(F)F)cc21", "note": "[Example 159, (R)-N-(1-(1-Ethyl-6-(trifluoromethyl)-1H-benzo[d]imidazol-2-yl)ethyl)biphenyl-4-sulfonamide]", "inhibition at 3.5 µM": 19.8}, {"molecule": "CCn1c([C@@H](C)NS(=O)(=O)c2cc(C)nc(C)c2)nc2ccc(C(F)(F)F)cc21", "note": "[Example 160, (R)-N-(1-(1-Ethyl-6-(trifluoromethyl)-1H-benzo[d]imidazol-2-yl)ethyl)-2,6-dimethylpyridine-4-sulfonamide]", "inhibition at 3.5 µM": 90.3}, {"molecule": "CCn1c([C@@H](C)NS(=O)(=O)c2ccnc(C)c2)nc2ccc(C(F)(F)F)cc21", "note": "[Example 161, (R)-N-(1-(1-Ethyl-6-(trifluoromethyl)-1H-benzo[d]imidazol-2-yl)ethyl)-2-methylpyridine-4-sulfonamide]", "inhibition at 3.5 µM": 91.4}, {"molecule": "CCn1c([C@@H](C)NS(=O)(=O)c2cncc(Br)c2)nc2ccc(C(F)(F)F)cc21", "note": "[Example 162]", "inhibition at 3.5 µM": 90.3}, {"molecule": "CCn1c([C@@H](C)NS(=O)(=O)c2ccc[n+]([O-])c2)nc2ccc(C(F)(F)F)cc21", "note": "[Example 164, (R)-3-(N-(1-(1-ethyl-6-(trifluoromethyl)-1H-benzo[d]imidazol-2-yl)ethyl)sulfamoyl)pyridine 1-oxide]", "inhibition at 3.5 µM": 19.5}, {"molecule": "CCn1c([C@@H](C)NS(=O)(=O)c2cc[n+]([O-])cc2)nc2ccc(C(F)(F)F)cc21", "note": "[Example 165, (R)-4-(N-(1-(1-Ethyl-6-(trifluoromethyl)-1H-benzo[d]imidazol-2-yl)ethyl)sulfamoyl)pyridine 1-oxide]", "inhibition at 3.5 µM": 75.6}, {"molecule": "CCn1c([C@@H](C)NS(=O)(=O)c2ccc(CCl)cc2)nc2ccc(C(F)(F)F)cc21", "note": "[Example 166, (R)-4-(Chloromethyl)-N-(1-(1-ethyl-6-(trifluoromethyl)-1H-benzo[d]imidazol-2-yl)ethyl)benzenesulfonamide]", "inhibition at 3.5 µM": 86}, {"molecule": "CCn1c([C@@H](C)NS(=O)(=O)c2ccc(CC#N)cc2)nc2ccc(C(F)(F)F)cc21", "note": "[Example 167, (R)-4-(cyanomethyl)-N-(1-(1-ethyl-6-(trifluoromethyl)-1H-benzo[d]imidazol-2-yl)ethyl)benzenesulfonamide]", "inhibition at 3.5 µM": 86}, {"molecule": "CCn1c([C@@H](C)NS(=O)(=O)c2ccc(NN)nc2)nc2ccc(C(F)(F)F)cc21", "note": "[Example 168, (R)—N-(1-(1-ethyl-6-(trifluoromethyl)-1H-benzo[d]imidazol-2-yl)ethyl)-6-hydrazinylpyridine-3-sulfonamide]", "inhibition at 3.5 µM": 77.1}, {"molecule": "CCn1c(C(C)NS(=O)(=O)c2cnc(N)c(Cl)c2)nc2ccc(C(F)(F)F)cc21", "note": "(stereo not shown) [Example 169, 6-amino-5-chloro-N-(1-(1-ethyl-6-(trifluoromethyl)-1H-benzo[d]imidazol-2-yl)ethyl)pyridine-3-sulfonamide]", "inhibition at 3.5 µM": 87.1}, {"molecule": "CCn1c(C(C)NS(=O)(=O)c2ccc(N)nc2)nc2ccc(C(F)(F)F)cc21", "note": "(stereo not shown) [Example 170, 6-amino-N-(1-(1-ethyl-6-(trifluoromethyl)-1H-benzo[d]imidazol-2-yl)ethyl)pyridine-3-sulfonamide]", "inhibition at 3.5 µM": 83.1}, {"molecule": "CCn1c(C(C)NS(=O)(=O)c2ccc(=O)[nH]c2)nc2ccc(C(F)(F)F)cc21", "note": "(stereo not shown) [Example 171, N-(1-(1-ethyl-6-(trifluoromethyl)-1H-benzo[d]imidazol-2-yl)ethyl)-6-oxo-1,6-dihydropyridine-3-sulfonamide]", "inhibition at 3.5 µM": 73.3}, {"molecule": "CCn1c([C@@H](C)NS(=O)(=O)c2ccc(C(=O)NC)nc2)nc2ccc(C(F)(F)F)cc21", "note": "[Example 172, (R)-5-[1-(1-Ethyl-6-trifluoromethyl-1H-benzoimidazol-2-yl)-ethylsulfamoyl]-pyridine-2-carboxylic acid methylamide]", "inhibition at 3.5 µM": 69.1}, {"molecule": "CCn1c([C@@H](C)NS(=O)(=O)c2ccc(C#N)nc2)nc2cnc(C3CC3)cc21", "note": "[Example 173, 6-Cyano-pyridine-3-sulfonic acid [1-(6-cyclopropyl-1-ethyl-1H-imidazo[4,5-c]pyridin-2-yl)-ethyl]-amide]", "inhibition at 3.5 µM": 81.9}, {"molecule": "CCn1c([C@@H](C)NS(=O)(=O)c2ccc(C(N)=O)nc2)nc2cnc(C3CC3)cc21", "note": "[Example 174, 5-[1-(6-Cyclopropyl-1-ethyl-1H-imidazo[4,5-c]pyridin-2-yl)-ethylsulfamoyl]-pyridine-2-carboxylic acid amide]", "inhibition at 3.5 µM": 87.8}, {"molecule": "CCn1c(C(C)(C)NS(=O)(=O)c2ccc(C#N)cc2)nc2ncccc21", "note": "[Example 176, 4-Cyano-N-[1-(1-ethyl-1H-imidazo[4,.5-b]pyridin-2-yl)-1-methylethyl] benzenesulfonamide]", "inhibition at 3.5 µM": 36.3}, {"molecule": "CCn1c(C(C)(C)NS(=O)(=O)c2ccc(C#N)nc2)nc2ncccc21", "note": "[Example 177, 6-cyano-N-(2-(1-ethyl-1H-imidazo[4,5-b]pyridin-2-yl)propan-2-yl)pyridine-3-sulfonamide]", "inhibition at 3.5 µM": 3.55}, {"molecule": "CCn1c(C(C)(C)NS(=O)(=O)c2ccc(C(N)=O)nc2)nc2ncccc21", "note": "[Example 178, 5-({[1-(1-Ethyl-1H-imidazo[4,5-b]pyridin-2-yl)-1-methylethyl]amino}sulfonyl)pyridine-2-carboxamide]", "inhibition at 3.5 µM": 8.27}, {"molecule": "CCn1c([C@@H](C)NS(=O)(=O)c2ccc(F)cc2)nc2ncc(C(F)(F)F)cc21", "note": "[Example 179, N-{(1R)-1-[1-Ethyl-6-(trifluoromethyl)-1H-imidazo[4,5-b]pyridin-2-yl]ethyl}-4-fluorobenzene sulfonamide]", "inhibition at 3.5 µM": 90.5}, {"molecule": "CCn1c([C@@H](C)NS(=O)(=O)c2ccc(C#N)cc2)nc2ncc(C(F)(F)F)cc21", "note": "[Example 180, 4-Cyano-N-{(1R)-1-[1-ethyl-6-(trifluoromethyl)-1H-imidazo[4,5-b]pyridin-2-yl]ethyl}benzenesulfonamide]", "inhibition at 3.5 µM": 91.1}, {"molecule": "CCn1c([C@@H](C)NS(=O)(=O)c2ccc(C#N)nc2)nc2ncc(C(F)(F)F)cc21", "note": "[Example 181, 6-Cyano-N-{(1R)-1-[1-ethyl-6-(trifluoromethyl)-1H-imidazo[4,5-b]pyridin-2-yl]ethyl}pyridine-3-sulfonamide]", "inhibition at 3.5 µM": 90.6}, {"molecule": "CCn1c([C@@H](C)NS(=O)(=O)c2ccc(NC)nc2)nc2ccc(C(F)(F)F)cc21", "note": "[Example 182, N-{(1R)-1-[1-Ethyl-6-(trifluoromethyl)-1H-benzimidazol-2-yl]ethyl}-6-(methylamino)pyridine-3-sulfonamide]", "inhibition at 3.5 µM": 92.5}, {"molecule": "CCn1c(C(C)(C)NS(=O)(=O)c2ccc(C#N)cc2)nc2cnc(C3CC3)cc21", "note": "[Example 185, 4-Cyano-N-[1-(6-cyclopropyl-1-ethyl-1H-imidazo[4,5-c]pyridin-2-yl)-1-methyl-ethyl]-benzenesulfonamide]", "inhibition at 3.5 µM": 65}, {"molecule": "CCn1c(C(C)(C)NS(=O)(=O)c2ccc(F)cc2)nc2cnc(C3CC3)cc21", "note": "[Example 186, 4-Fluoro-N-[1-(6-cyclopropyl-1-ethyl-1H-imidazo[4,5-c]pyridin-2-yl)-1-methyl-ethyl]-benzenesulfonamide]", "inhibition at 3.5 µM": 56.5}, {"molecule": "CCn1c([C@@H](C)NS(=O)(=O)c2cccn2C)nc2ccc(C(F)(F)F)cc21", "note": "[Example 187, (R)—N-(1-(1-Ethyl-6-(trifluoromethyl)-1H-benzo[d]imidazol-2-yl)ethyl)-1-methyl-1H-pyrrole-2-sulfonamide]", "inhibition at 3.5 µM": 86.2}]}]}
